Assays:
[1] = molecular target: T1, σ1-receptor (Cavia porcellus, UniProt Q60492); test: Sigma-1 receptor radioligand binding, [3H](+)pentazocine (Version A / Version B); set-up: species or system guinea pig; details: for % Binding σ1 10^−6 M: compound 10^−6 M; for % Binding σ1 10^−6 M / inhibition at 0.1 µM / inhibition at 0.01 µM: guinea pig brain membranes; for Ki: value in parentheses below the % binding, guinea pig brain; for inhibition at 0.1 µM: compound 10^−7 M; for inhibition at 0.01 µM: compound 10^−8 M
T1 construct: guinea pig brains were homogenized in 10 vols; (w/v) of Tris-HCl 50 mM 0.32 M sucrose; from tissue; host or cells: guinea pig brain membranes
T1 sequence (Q60492 whole entry): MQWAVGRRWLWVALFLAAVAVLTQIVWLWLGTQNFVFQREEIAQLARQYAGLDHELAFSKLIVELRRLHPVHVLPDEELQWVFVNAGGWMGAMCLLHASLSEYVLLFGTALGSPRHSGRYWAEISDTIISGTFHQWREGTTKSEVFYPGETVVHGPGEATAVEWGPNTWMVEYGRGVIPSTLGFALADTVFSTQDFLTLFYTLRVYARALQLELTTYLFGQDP
Protocol: Brain membrane preparation and binding assays for the σ1-receptor were performed as described (DeHaven-Hudkins et al., 1992) with some modifications. In brief, guinea pig brains were homogenized in 10 vols. (w/v) of Tris-HCl 50 mM 0.32 M sucrose, pH 7.4, with a Kinematica Polytron PT 3000 at 15000 r.p.m. for 30 s. The homogenate was centrifuged at 1000 g for 10 min at 4° C. and the supernatants collected and centrifuged again at 48000 g for 15 min at 4° C. The pellet was resuspended in 10 volumes of Tris-HCl buffer (50 mM, pH 7.4), incubated at 37° C. for 30 min, and centrifuged at 48000 g for 20 min at 4° C. Following this, the pellet was resuspended in fresh Tris-HCl buffer (50 mM, pH 7.4) and stored on ice until use.
Each assay tube contained 10 μL of [^3H](+)pentazocine (final concentration of 0.5 nM), 900 μL of the tissue suspension to a final assay volume of 1 mL and a final tissue concentration of approximately 30 mg tissue net weight/mL. Non-specific binding was defined by addition of a final concentration of 1 μM haloperidol. All tubes were incubated at 37° C. for 150 min before termination of the reaction by rapid filtration over Schleicher & Schuell GF 3362 glass fibre filters [previously soaked in a solution of 0.5% polyethylenimine for at least 1 h]. Filters were then washed with four times with 4 mL of cold Tris-HCl buffer (50 mM, pH 7.4). Following addition of scintillation cocktail, the samples were allowed to equilibrate overnight. The amount of bound radioactivity was determined by liquid scintillation spectrometry using a Wallac Winspectral 1414 liquid scintillation counter. Protein concentrations were determined by the method of Lowry et al. (1951).
In brief the σ1-receptor preparation was prepared from guinea pig brain. The brains were homogenized in 5 to 6 times of volume sucrose solution (0.32M) and homogenized. The homogenate was centrifuged at 2900 rpm, 4° C., 10 min). the supernatant was centrifuged again (23500×g, 4° C., 20 min). The pellet was resuspended in Tris-buffer, incubated for 30 min at room temperature and centrifuged f (23500×g, 4° C., 20 min). The pellet was resuspended in cold TRIS-buffer and homogenized. Then the protein content was measured (approx. 1.5 mg/mL) and the homogenate frozen at −80° C. for later use.
The radioligand used was [^3H]-(+)-Pentazocin in TRIS-buffer. In a volume of 200 μL 50 μL TRIS-buffer, 50 μL compound solution of varying concentration, 50 μL radioligand-solution (8 nM; resulting in 2 nM in the assay) and finally 50 μL of receptor preparation (approx. 1.5 mg/mL) were given into a well of a microplate equipped with a filter. The plate was closed and stirred for 2.5 h at 37° C. and 500 rpm. Following that the solvents were removed by a harvester through the filter. After rinsing with H2O the filter was measured in a scintillation counter ([^3H]-protocol).

[2] = test system: σ2-receptor; test: Sigma-2 receptor radioligand binding, [3H]-DTG (Version A / Version B); set-up: species or system mice (Version A, σ1 knockout brain) / rat (Version B, liver); details: compound 10^−6 M
Protocol: Binding studies for σ2-receptor were performed as described (Radesca et al., 1991) with some modifications. In brief, brains from sigma receptor type I (σ1) knockout mice were homogenized in a volume of 10 mL/g tissue net weight of ice-cold 10 mM Tris-HCl, pH 7.4, containing 320 mM sucrose (Tris-sucrose buffer) with a Potter-Elvehjem homogenizer (10 strokes at 500 r.p.m.) The homogenates were then centrifuged at 1000 g for 10 min at 4° C., and the supernatants were saved. The pellets were resuspended by vortexing in 2 mL/g ice-cold Tris-sucrose buffer and centrifuged again at 1000 g for 10 min. The combined 1000 g supernatants were centrifuged at 31000 g for 15 min at 4° C. The pellets were resuspended by vortexing in 3 mL/g 10 mM Tris-HCl, pH 7.4, and the suspension was kept at 25° C. for 15 min. Following centrifugation at 31000 g for 15 min, the pellets were resuspended by gentle Potter Elvehjem homogenization to a volume of 1.53 mL/g in 10 mM Tris-HCl pH 7.4.
The assay tubes contained 10 μL of [^3H]-DTG (final concentration of 3 nM), 400 μL of the tissue suspension (5.3 mL/g in 50 mM Tris-HCl, pH 8.0) to a final assay volume of 0.5 mL. Non-specific binding was defined by addition of a final concentration of 1 μM haloperidol. All tubes were incubated at 25° C. for 120 min before termination of the reaction by rapid filtration over Schleicher & Schuell GF 3362 glass fibre filters [previously soaked in a solution of 0.5% polyethylenimine for at least 1 h]. Filters were washed with three times with 5 mL volumes of cold Tris-HCl buffer (10 mM, pH 8.0). Following addition of scintillation cocktail samples were allowed to equilibrate overnight. The amount of bound radioactivity was determined by liquid scintillation spectrometry using a Wallac Winspectral 1414 liquid scintillation counter. Protein concentrations were determined by the method of Lowry et al. (1951).
In brief the σ2-Receptor preparation was prepared from rat liver. The livers were homogenized in 5 to 6 times of volume sucrose solution (0.32M) and homogenized. The homogenate was centrifuged at 2900 rpm, 4° C., 10 min). the supernatant was centrifuged again (31000×g, 4° C., 20 min). The pellet was resuspended in TRIS-buffer, incubated for 30 min at room temperature while stirring and centrifuged f (31000×g, 4° C., 20 min). The pellet was resuspended in cold TRIS-buffer pH 8 and homogenized. Then the protein content was measured (approx. 2 mg/mL) and the homogenate frozen at −80° C. for later use.
The radioligand used was [^3H]-Ditolylguanidin in TRIS-buffer pH 8. The σ1-receptor binding sites were masked through (+)-Pentazocin-solution in TRIS-Puffer pH 8.
In a volume of 200 μL 50 μL compound solution of varying concentration, 50 μL (+Pentazocin-solution (2 μM; resulting in 500 nM in the assay), 50 μL radioligand-solution (12 nM; resulting in 3 nM in the assay) and finally 50 μL of receptor preparation (approx. 2 mg/mL) were given into a well of a microplate equipped with a filter. The plate was closed and stirred for 2 h at room temperature and 500 rpm. Following that the solvents were removed by a harvester through the filter. After rinsing with H2O the filter was measured in a scintillation counter ([^3H]-protocol).

Row | Compound | % Binding σ1 10^−6 M [1] | % Binding σ2 10^−6 M [2] [%] | inhibition at 0.1 µM [1] [%] | inhibition at 0.01 µM [1] [%] | other results
1 | CCCCN1CCC[C@]2(C1)O[C@H](OC)Cc1ccccc12 (racemic) [Example 11, trans-1′-Butyl-3-methoxy-3,4-dihydrospiro[[2]benzopyran-1,3′-piperidin]] | 49^ % | 18.8 |  |  | 
2 | CO[C@@H]1Cc2ccccc2[C@@]2(CCCN(Cc3ccccc3)C2)O1 [Example 1, cis-1′-Benzyl-3-methoxy-3,4-dihydrospiro[[2]benzopyran-1,3′-piperidin]] |  |  | 34 |  | 
3 | COC1OC2(CC[N+]3(CCCC3)CC2)c2ccccc21.[Br-] (centres unmarked) |  |  |  |  | melting point: 124 °C
4 | CO[C@@H]1Cc2ccccc2[C@]2(CCCN(CCCc3ccccc3)C2)O1 (relative stereo) [Example 7, trans-3-Methoxy-1′-(3-phenylpropyl)-3,4 dihydrospiro[[2]benzopyran-1,3′-piperidin]] | 14^ % | 54.3 |  |  | 
5 | CCCCCCCCN1CCC2(CC1)OC(OC)Cc1ccccc12 (centres unmarked) [Example 37] | 103.9% | 72.6 |  |  | 
6 | CO[C@@H]1Cc2ccccc2[C@@]2(CCCN(CCCc3ccccc3)C2)O1 (relative stereo) [Example 6, cis-3-Methoxy-1′-(3-phenylpropyl)-3,4-dihydrospiro[[2]benzopyran-1,3′-piperidin]] | 38.8% | 32.2 |  |  | 
7 | COC1Cc2ccccc2C2(CCCNC2)O1 (centres unmarked) |  |  |  |  | melting point: 54 to 58 °C
8 | CCCCN1CCC2(CC1)OC(OC)Cc1ccccc12 (centres unmarked) [Example 36] | 100.8% | 39.7 |  |  | Ki [1]: 2.3 nM
9 | CCCCN1CCC[C@@]2(C1)O[C@H](OC)Cc1ccccc12 (relative stereo) [Example 10, cis-1′-Butyl-3-methoxy-3,4-dihydrospiro[[2]benzopyran-1,3′-piperidin]] | 56^ % | 7.6 |  |  | 
10 | CO[C@@H]1Cc2ccccc2[C@]2(CCCN(Cc3ccccc3)C2)O1 (relative stereo) [Example 2, trans-1′-Benzyl-3-methoxy-3,4-dihydrospiro[[2]benzopyran-1,3′-piperidin]] | 12.9% | 27.8 |  |  | 

The next lines start with results.

Row | % Binding σ1 10^−6 M [1] | % Binding σ2 10^−6 M [2] [%] | inhibition at 0.1 µM [1] [%] | inhibition at 0.01 µM [1] [%] | Compound | other results
11 | 96.2% |  |  |  | COC1Cc2ccccc2C2(CCN(Cc3ccccc3)C2)O1 (mixture of isomers) [Example 18, cis/trans-1′-Benzyl-3-methoxy-3,4-dihydrospiro[[2]benzopyran-1,3′-pyrrolidin]] | Ki [1]: 70 nM
12 |  |  | 80.4 | 27.4 | COC1OC2(CCN(CCCCc3ccccc3)C2)c2ccccc21 (mixture of isomers) [Example 28, cis/trans-3-Methoxy-1′-(4-Phenylbutyl)-3H-spiro[[2]benzofuran-1,3′-pyrrolidin]] | 
13 |  |  | 92.2 | 40.4 | COC1OC2(CCN(CCc3ccccc3)C2)c2ccccc21 (mixture of isomers) [Example 27, cis/trans-3-Methoxy-1′-(2-Phenylethyl)-3H-spiro[[2]benzofuran-1,3′-pyrrolidin]] | 
14 |  |  | 70.4 | 0.8 | CCCCCCCCN1CCC2(C1)OC(OC)Cc1ccccc12 (mixture of isomers) [Example 23, cis/trans-3-Methoxy-1′-octyl-3,4-dihydrospiro[[2]benzopyran-1,3′-pyrrolidin]] | 
15 | 27.6% | 56.3 |  |  | CCCCCCCCN1CCC[C@]2(C1)O[C@H](OC)Cc1ccccc12 (relative stereo) [Example 15, trans-3-Methoxy-1′-octyl-3,4-dihydrospiro[[2]benzopyran-1,3′-piperidin]] | 
16 | 46.3% | 45.4 |  |  | CCCCCCCCN1CCC[C@@]2(C1)O[C@H](OC)Cc1ccccc12 [Example 14, cis-3-Methoxy-1′-octyl-3,4-dihydrospiro[[2]bonzopyran-1,3′-piperidin]] | 
17 |  |  | 91.5 | 41.8 | CCCCCCCCN1CCC2(C1)OC(OC)c1ccccc12 (mixture of isomers) [Example 30, cis/trans-3-Methoxy-1′-octyl-3H-spiro[[2]benzofuran-1,3′-pyrrolidin]] | 
18 |  |  | 68.9 | 45.6 | CCCCN1CCC2(C1)OC(OC)c1ccccc12 (mixture of isomers) [Example 29, cis/trans-1′-Butyl-3-methoxy-3H-spiro[[2]benzofuran-1,3′-pyrrolidin]] | 
19 |  |  | 67 | 32 | COC1Cc2ccccc2C2(CCN(CCCCc3ccccc3)C2)O1 (mixture of isomers) [Example 21, cis/trans-3-Methoxy-1′-(4-phenylbutyl)-3,4-dihydrospiro[[2]benzopyran-1,3′-pyrrolidin]] | 
20 |  |  | 89.5 | 32 | COC1Cc2ccccc2C2(CCN(CCc3ccccc3)C2)O1 (mixture of isomers) [Example 20, cis/trans-3-Methoxy-1′-(2-phenylethyl)-3,4-dihydrospiro[[2]benzopyran-1,3′-pyrrolidin]] | 

— patent US20090209568A1, “Spiro [Benzopyran] or Spiro [Benzofuran] Derivatives Which Inhibit the Sigma Receptor” (priority 2006, published 2009)
